A word on the IC50: it is the point on the concentration scale where inhibition reaches its midpoint.

For one test, the target named is T1, GLUT1 (Homo sapiens, UniProt P11166).
T1 sequence (P11166 1-492): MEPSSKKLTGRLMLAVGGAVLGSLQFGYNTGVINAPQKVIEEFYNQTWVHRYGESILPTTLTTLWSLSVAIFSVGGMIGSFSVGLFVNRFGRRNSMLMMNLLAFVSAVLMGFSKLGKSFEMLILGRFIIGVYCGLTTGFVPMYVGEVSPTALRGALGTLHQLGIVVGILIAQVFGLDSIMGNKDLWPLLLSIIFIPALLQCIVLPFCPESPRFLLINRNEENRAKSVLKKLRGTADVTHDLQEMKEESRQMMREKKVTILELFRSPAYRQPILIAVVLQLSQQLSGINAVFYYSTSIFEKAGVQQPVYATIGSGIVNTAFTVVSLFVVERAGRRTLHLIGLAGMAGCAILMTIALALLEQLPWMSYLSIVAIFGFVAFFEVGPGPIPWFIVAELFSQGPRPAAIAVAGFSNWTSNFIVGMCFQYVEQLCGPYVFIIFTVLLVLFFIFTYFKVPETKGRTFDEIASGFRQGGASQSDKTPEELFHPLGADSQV
Nature of the test: Indirect measurement of GLUT1 activity by quantification of intracellular ATP levels (glucose induced ATP increase). The format is cell-based. Also noted: endogenous in cells; host or cells: DLD1 or CHO-K1. The conditions noted are these: DLD1 cells; 0.1 mM glucose, 1 μM Rotenone, 15 min; CellTiter-Glo ATP readout; IC50 values standardized to cytochalasin B IC50 values; read-out: IC50 regarding glucose induced ATP increase (GLUT1 inhibition). Summed up:
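Intracellular ATP was measured by CellTiter-Glo luminescence as an indirect readout of transport: glucose-driven for GLUT1, fructose-driven for GLUT2. DLD1 or CHO-K1 cells were used alongside an oxidative phosphorylation inhibitor. Beforehand, cells were held overnight in glucose-free 1% FCS medium to deplete ATP.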
On the technique in general: In ATP-based viability assays light output follows the ATP content of the culture.
For `Cc1c(NC(=O)c2cc(C(N)=O)nc3cc(F)ccc23)c(C(F)(F)F)nn1Cc1ccc(C#N)nn1` [Example 427, N^4-{1-[(6-cyanopyridazin-3-yl)methyl]-5-methyl-3-(trifluoromethyl)-1H-pyrazol-4-yl}-7-fluoroquinoline-2,4-dicarboxamide], the IC50 was 0.0783 µM.

Staying with this test, now noted: read-out: IC50 regarding glucose induced ATP increase (GLUT1 inhibition).
In the case of `CSc1cc(C(=O)Nc2c(C(F)(F)F)nn(Cc3ccc(C#N)cc3)c2C)c2ccccc2n1` [Example 382, N-[1-(4-cyanobenzyl)-5-methyl-3-(trifluoromethyl)-1H-pyrazol-4-yl]-2-(methylsulfanyl)quinoline-4-carboxamide], the IC50 was 0.0261 µM. On to `Cc1nn(Cc2cnn(C)c2C)c(C)c1NC(=O)c1cc(C(F)(F)F)nc2ccc(Br)cc12` [Example 1342], for which the concentration for half-maximal inhibition (IC50) stood at 0.0265 µM. Same read-out and setting: with `Cc1nn(Cc2ccc(C(=O)NCCCc3ccccc3)cc2)c(C)c1NC(=O)c1cc(C(F)(F)F)nc2ccc(Br)cc12` [Example 1178] the figure was 0.224 µM; with `COc1ccc(Cn2nc(C(F)(F)F)c(NC(=O)c3cc(C(N)=O)nc4cc(F)c(Cl)cc34)c2C)cn1` [Example 281, 6-chloro-7-fluoro-N^4-{1-[(6-methoxypyridin-3-yl)methyl]-5-methyl-3-(trifluoromethyl)-1H-pyrazol-4-yl}quinoline-2,4-dicarboxamide], 0.0013 µM. Still for that read-out and setting: under `Cc1nn(CC2CCCCC2)c(C)c1NC(=O)c1cc(C(F)(F)F)nc2ccc(Br)cc12` [Example 170, 6-bromo-N-[1-(cyclohexylmethyl)-3,5-dimethyl-1H-pyrazol-4-yl]-2-(trifluoromethyl)quinoline-4-carboxamide] stands 0.0544 µM; under `CCS(=O)(=O)N1CCC(Cn2nc(C)c(NC(=O)c3cc(C(F)(F)F)nc4ccc(Br)cc34)c2C)CC1` [Example 1533], 0.168 µM.

On to `Cc1c(NC(=O)c2cc(C(N)=O)nc3ccccc23)c(C(F)(F)F)nn1Cc1ccc(C#N)s1` [Example 1679], for which the 50% inhibitory concentration (IC50) was 0.0186 µM. The same measure, in the same setting: under `COc1cc(C(=O)Nc2c(C)nn(Cc3ccc(C#N)cn3)c2C)c2ccccc2n1` [Example 357, N-{1-[(5-cyanopyridin-2-yl)methyl]-3,5-dimethyl-1H-pyrazol-4-yl}-2-methoxyquinoline-4-carboxamide] stands 0.0288 µM; under `Cc1nn(CC(=O)Nc2cccc(F)c2)c(C)c1NC(=O)c1cc(C(N)=O)nc2ccccc12` [Example 1701], 0.165 µM. Same read-out and setting: with `Cc1nn(Cc2ccc(F)c(F)c2)c(C)c1NC(=O)c1cc(C(F)(F)F)nc2ccc(Cl)cc12` [Example 165, 6-chloro-N-[1-(3,4-difluorobenzyl)-3,5-dimethyl-1H-pyrazol-4-yl]-2-(trifluoromethyl)quinoline-4-carboxamide] the figure was 0.0304 µM; with `Cc1cccc2nc(C(N)=O)cc(C(=O)Nc3c(C(F)(F)F)nn(Cc4ccc(C#N)cc4)c3C)c12` [Example 244, N^4-[1-(4-cyanobenzyl)-5-methyl-3-(trifluoromethyl)-1H-pyrazol-4-yl]-5-methylquinoline-2,4-dicarboxamide], 0.0176 µM.

As for `Cc1c(NC(=O)c2cc(C(N)=O)nc3c(Cl)cccc23)c(C(F)(F)F)nn1Cc1ccc(C#N)cc1` [Example 338, 8-chloro-N^4-[1-(4-cyanobenzyl)-5-methyl-3-(trifluoromethyl)-1H-pyrazol-4-yl]quinoline-2,4-dicarboxamide], the half-maximal inhibitory concentration (IC50) was 0.0027 µM. Same read-out and setting: under `COc1cc(C(=O)Nc2c(C)nn(C(C)c3ccccc3)c2C)c2ccccc2n1` (racemic) [Example 1361] stands 0.0369 µM. Same read-out and setting: under `Cc1c(NC(=O)c2cc(C(N)=O)nc3ccccc23)c(C(F)(F)F)nn1Cc1ccccc1C#N` [Example 271, N^4-[1-(2-cyanobenzyl)-5-methyl-3-(trifluoromethyl)-1H-pyrazol-4-yl]quinoline-2,4-dicarboxamide] stands 0.0036 µM.

For `Cc1c(NC(=O)c2cc(C(N)=O)nc3cc(F)ccc23)c(C(F)(F)F)nn1Cc1ccc(OC(F)(F)F)cc1` [Example 1466], the IC50 amounted to 0.0054 µM. The same measure, in the same setting: with `Cc1nn(Cc2c(F)cc(F)cc2F)c(C)c1NC(=O)c1cc(C(F)(F)F)nc2ccc(Br)cc12` [Example 49, 6-bromo-N-[3,5-dimethyl-1-(2,4,6-trifluorobenzyl)-1H-pyrazol-4-yl]-2-(trifluoromethyl)quinoline-4-carboxamide] the figure was 0.05 µM.

In the case of `Cc1nn(Cc2ccc(C#N)cn2)c(C)c1NC(=O)c1cc(C(N)=O)nc2cc(F)ccc12` [Example 356, N^4-{1-[(5-cyanopyridin-2-yl)methyl]-3,5-dimethyl-1H-pyrazol-4-yl}-7-fluoroquinoline-2,4-dicarboxamide], the IC50 is 0.0093 µM.

For the molecule `Cc1ccc2nc(C)cc(C(=O)Nc3c(C)nn(Cc4ccccc4C(F)(F)F)c3C)c2c1` [Example 1298], the IC50 turned out to be 11.1 µM.

In the case of `Cc1c(NC(=O)c2cc(C(N)=O)nc3ccccc23)c(C(C)C)nn1Cc1ccc(C#N)cc1` [Example 322, N^4-[1-(4-cyanobenzyl)-3-isopropyl-5-methyl-1H-pyrazol-4-yl]quinoline-2,4-dicarboxamide], the 50% inhibitory concentration (IC50) was 0.0019 µM. Same read-out and setting: under `Cc1nn(Cc2ccc(C(=O)NCc3cncn3C)cc2)c(C)c1NC(=O)c1cc(C(F)(F)F)nc2ccc(Br)cc12` [Example 1142] stands 0.112 µM. Consider `Cc1nn(Cc2ccc(C(=O)N3CCN(C)CC3)cc2)c(C)c1NC(=O)c1cc(C(F)(F)F)nc2ccc(Br)cc12` [Example 1212], for which the IC50 is 0.598 µM. Same read-out and setting: with `Cc1nn(Cc2ccc(C#N)cc2)c(C)c1NC(=O)c1cc(C(N)=O)nc2ccc(F)cc12` [Example 228, N^4-[1-(4-cyanobenzyl)-3,5-dimethyl-1H-pyrazol-4-yl]-6-fluoroquinoline-2,4-dicarboxamide] the figure was 0.0046 µM. Turning to `Cc1nn(Cc2ccc(F)cc2)c(C)c1NC(=O)c1cc(C(F)(F)F)nc2ccc(Cl)c(Cl)c12` [Example 22, 5,6-dichloro-N-[1-(4-fluorobenzyl)-3,5-dimethyl-1H-pyrazol-4-yl]-2-(trifluoromethyl)quinoline-4-carboxamide], the IC50 worked out at 0.0154 µM. The same measure, in the same setting: under `Cc1cccc(Cn2nc(C)c(NC(=O)c3cc(C(N)=O)nc4cc(F)c(Cl)cc34)c2C)c1` [Example 1473] stands 0.0052 µM; under `Cc1nn(Cc2ccc(C(=O)NCCO)cc2)c(C)c1NC(=O)c1cc(C(F)(F)F)nc2ccc(Br)cc12` [Example 139, 6-bromo-N-(1-{4-[(2-hydroxyethyl)carbamoyl]benzyl}-3,5-dimethyl-1H-pyrazol-4-yl)-2-(trifluoromethyl)quinoline-4-carboxamide], 0.0317 µM; under `Cc1nn(Cc2ccc(C#N)cc2)c(C)c1NC(=O)c1cc(C(N)=O)nc2cc(F)c(F)cc12` [Example 230, N^4-[1-(4-cyanobenzyl)-3,5-dimethyl-1H-pyrazol-4-yl]-6,7-difluoroquinoline-2,4-dicarboxamide], 0.005 µM. The same measure, in the same setting: under `Cc1cccc(Cn2nc(C(F)(F)F)c(NC(=O)c3cc(C(N)=O)nc4cccc(F)c34)c2C)c1` [Example 1479] stands 0.0227 µM. `Cc1nn(Cc2ccc(F)c(F)c2)c(C)c1NC(=O)c1cc(C(F)(F)F)nc2ccc(F)cc12` [Example 174, N-[1-(3,4-difluorobenzyl)-3,5-dimethyl-1H-pyrazol-4-yl]-6-fluoro-2-(trifluoromethyl)quinoline-4-carboxamide]: the IC50 was 0.0696 µM. On the same count and under the same terms, with `Cc1nn(Cc2ccc(F)cc2)c(C)c1NC(=O)c1cc(C(F)(F)F)nc2ccc(NC(=O)C(N)=O)cc12` [Example 1242] the figure was 1.56 µM; with `Cc1c(NC(=O)c2cc(C(F)(F)F)nc3ccc(Br)cc23)c(C(F)(F)F)nn1Cc1ccc(F)cc1` [Example 32, 6-bromo-N-[1-(4-fluorobenzyl)-5-methyl-3-(trifluoromethyl)-1H-pyrazol-4-yl]-2-(trifluoromethyl)quinoline-4-carboxamide], 0.0205 µM.

`CCc1cc(Cn2nc(C)c(NC(=O)c3cc(C(N)=O)nc4ccccc34)c2C)on1` [Example 1531]: the IC50 amounted to 0.0376 µM.

For `Cc1c(NC(=O)c2cc(C(N)=O)nc3cc(F)ccc23)c(C(F)(F)F)nn1Cc1ccc(CC#N)cc1` [Example 403, N^4-{1-[4-(cyanomethyl)benzyl]-5-methyl-3-(trifluoromethyl)-1H-pyrazol-4-yl}-7-fluoroquinoline-2,4-dicarboxamide], the 50% inhibitory concentration (IC50) was 0.001 µM. The same measure, in the same setting: under `Cc1c(NC(=O)c2cc(C(=O)NCCN(C)C)nc3cc(F)ccc23)c(C(F)(F)F)nn1Cc1ccc(C#N)cc1` [Example 1400] stands 2.61 µM.

With `Cc1nn(Cc2ccccc2C#N)c(C)c1NC(=O)c1cc(C(N)=O)nc2cc(F)c(F)cc12` [Example 235, N^4-[1-(2-cyanobenzyl)-3,5-dimethyl-1H-pyrazol-4-yl]-6,7-difluoroquinoline-2,4-dicarboxamide], the 50% inhibitory concentration (IC50) turned out to be 0.0109 µM. With `C=Cc1ccc(Cn2nc(C)c(NC(=O)c3cc(C)nc4ccc(C)cc34)c2C)cc1` [Example 1097], the concentration for half-maximal inhibition (IC50) was 0.0413 µM. The same measure, in the same setting: with `Cc1nn(Cc2ccc(C(=O)Nc3ccccc3C(N)=O)cc2)c(C)c1NC(=O)c1cc(C(F)(F)F)nc2ccc(Br)cc12` [Example 1038] the figure was 0.0057 µM.

The values above are taken from patent publication US20170037028A1 (BAYER PHARMA AKTIENGESELLSCHAFT, priority 2013, published 2017).
